These are literature values, as cited in patent US6066339A (priority 1997, dated 2000).

In the series the test system is μ-opioid. The following applies: animal experiments.

On to `CN1CC[C@]23c4c5ccc(O)c4O[C@H]2[C@@H](O[C@@H]2O[C@H](C(=O)O)[C@@H](O)[C@H](O)[C@H]2O)C=C[C@H]3[C@H]1C5` [morphine-6-glucuronide], for which the μ-opioid agonism result is recorded as “potent μ-opioid agonist”.
